This is an account of results in PMC12786457, “Studies on the Complexation of Platinum(II) by Some 4-Nitroisothiazoles and the Cytotoxic Activity of the Resulting Complexes” (Molecules, 2025).

Data set [1] can be described thus: TLC Rf as a measure of relative lipophilicity. The format is physicochemical. The following applies: silica gel TLC Al foils.
In data set [2] the test system is A549 (lung adenocarcinoma). The experiment in a line: SRB (sulforhodamine B) viability assay, A549. The following applies: for IC50 / IC50 ± SD, A549 (Lung), Hypoxia: SRB assay. The format is cell-based, human. As for the experimental part:
(§1) The cytotoxicity of the complexes C1–C5 was estimated by examining cell viability using the sulforhodamine B assay. […] However, due to the very poor solubility of the most polar complex C5 in acetone, its initial solution had to be prepared in polar N,N-dimethylacetamide (DMA) (see Section 3.7). Cisplatin was used as the reference drug. The results are presented as IC50 (50% inhibitory concentration), i.e., concentrations that reduce cell survival by 50%. The test was conducted on three cancer cell lines and one normal healthy cell line, namely, breast adenocarcinoma (MCF-7), ovarian adenocarcinoma (ES-2), lung adenocarcinoma (A549), and murine embryonic fibroblast (BALB/3T3).
(§2) Three solid tumor cell lines were used in this study: MCF-7 (breast adenocarcinoma), ES-2 (ovarian adenocarcinoma), and A549 (lung adenocarcinoma). The BALB/3T3 (mouse embryonic fibroblast) cell line was used as a comparative nonpathological tissue. All cell lines were purchased from the American Type Culture Collection (ATCC, Rockville, MD, USA). The preparation of cell cultures for cytotoxicity experiments is described in detail in the following article.
(§3) The initial solutions for subsequent dilutions in biological medium were prepared in a similar manner as described previously. […] The complex C5 was dissolved in the dimethylacetamide (DMA). All the initial solutions were prepared ex tempore and then were added to the culture medium 1:9 (v/v) to obtain a stock solution of 1 mg/mL.
(§4) The test was prepared and performed in the same manner as detailed in the following cited works.
Background: The SRB assay estimates cell density from bound dye.

For data set [3], the system named is BALB/3T3 (mouse embryonic fibroblast). The experiment in a line: SRB (sulforhodamine B) viability assay, normal cells BALB/3T3. The format is cell-based. As to conditions: normoxia, read-out: IC50 ± SD, Normal Cells BALB/3T3, Normoxia. As for the experimental part:
as §1, §2, §3, §4

Data set [4] has as its system ES-2 (ovarian adenocarcinoma). The experiment in a line: SRB (sulforhodamine B) viability assay, ES-2. The format is cell-based, human. As for the experimental part: as §1, §2, §3, §4
Data set [5] in a line: Solubility in solvents (qualitative). The format is physicochemical.
The subject of data set [6] is MCF-7 (breast adenocarcinoma). The experiment in a line: SRB (sulforhodamine B) viability assay, MCF-7. The format is cell-based, human. As to conditions: for IC50: SRB assay. How it is done:
as §1, §2, §3, §4

[7] abbreviates: normoxia, read-out: IC50 ± SD, A549 (Lung), Normoxia.
Where [8] appears, read: hypoxia, read-out: IC50 ± SD, ES-2 (Ovarian), Hypoxia.
Where [9] appears, read: normoxia, read-out: IC50 ± SD, ES-2 (Ovarian), Normoxia.
The mark [10] stands for this setting: hypoxia, read-out: IC50 ± SD, MCF-7 (Breast), Hypoxia.
The mark [11] stands for this setting: normoxia, read-out: IC50 ± SD, MCF-7 (Breast), Normoxia.

Like-named read-outs stand apart in the source and are kept apart here.

On to `Cc1nscc1[N+](=O)[O-].Cc1nscc1[N+](=O)[O-].[Cl][Pt][Cl]` [C2, trans-Dichlorobis(3-methyl-4-nitroisothiazole)platinum(II)], for which the “Rf, Eluent: Chlorofom:Acetone Ratio 9:7 Vol.” value in data set [1] is reported as 0.756. Moreover, the IC50 in data set [2] (hypoxia, read-out: IC50 ± SD, A549 (Lung), Hypoxia) came out at 6.52 ± 2.28 µM; in data set [2] (setting [7]), 6.34 ± 1.47 µM; in data set [3] it was 1.14 ± 0.28 µM; in data set [4] (setting [8]), 1.1 ± 0.34 µM; in data set [4] (setting [9]), 2.14 ± 2.21 µM; in data set [6] (setting [10]) it was 9.07 ± 5.07 µM. In addition, the IC50 in data set [6] (setting [11]) stood at 6.16 ± 0.78 µM. In addition, in data set [2] (ratio of cytotoxicity towards healthy BALB/3T3 cells to cytotoxicity towards A549), the “selectivity index (SI), healthy cells vs A549” value was 0.2. Also, the solubility in acetone entry in data set [5] is recorded as “weakly soluble”. Moreover, the “selectivity index (SI), healthy cells vs MCF-7” value in data set [6] (ratio of cytotoxicity towards healthy BALB/3T3 cells to cytotoxicity towards MCF-7, normoxia) is on record as “≈ 0.2”.
In the case of `COC(=O)c1snc(C)c1[N+](=O)[O-].Cc1nscc1[N+](=O)[O-].[Cl][Pt][Cl]` [C3, trans-Dichloro-3-methyl-4-nitroisothiazole 3-Methyl-4-nitro-5-(methoxycarbonyl)isothiazole Platinum(II)], in data set [1], the “Rf, Eluent: Chlorofom:Acetone Ratio 9:7 Vol.” value amounted to 0.814. Further, the “IC50 ± SD, A549 (Lung), Hypoxia” value in data set [2] (hypoxia) was “inactive”. The IC50 was 5.74 ± 0.65 µM in data set [2] (setting [7]); 2.94 ± 3.06 µM in data set [3]; 4.02 ± 2.47 µM in data set [4] (setting [8]); 3.9 ± 2.68 µM in data set [4] (setting [9]); 7.13 ± 1.93 µM in data set [6] (setting [10]); 5.25 ± 1.01 µM in data set [6] (setting [11]). Moreover, the solubility in acetone entry in data set [5] is recorded as “slightly soluble”. Moreover, the solubility in chloroform entry in data set [5] is listed as “very poorly soluble”.
Consider `COC(=O)c1snc(C)c1[N+](=O)[O-].COC(=O)c1snc(C)c1[N+](=O)[O-].[Cl][Pt][Cl]` [C4, trans-Dichlorobis(3-methyl-4-nitro-5-(methoxycarbonyl)isothiazole)platinum(II)], for which the “Rf, Eluent: Chlorofom:Acetone Ratio 9:7 Vol.” value in data set [1] is listed as 0.849. The “IC50 ± SD, A549 (Lung), Hypoxia” value in data set [2] (hypoxia) was “inactive”. Moreover, the IC50 in data set [2] (setting [7]) was determined as 40.3 ± 19.9 µM; in data set [3], 5.99 ± 1.28 µM; in data set [4] (setting [8]), 5.44 ± 1.64 µM; in data set [4] (setting [9]) it was 3.89 ± 1.62 µM; in data set [6] (setting [10]), 7.68 ± 4.45 µM; in data set [6] (setting [11]) it was 6.94 ± 2.25 µM. In addition, the solubility in acetone entry in data set [5] is recorded as “slightly soluble”. The solubility in chloroform result in data set [5] is given as “very poorly soluble”.
Turning to “Dichlorobis(3-methyl-4-nitroisothiazole)platinum(II) [C1]”, the “Rf, Eluent: Chlorofom:Acetone Ratio 9:7 Vol.” value in data set [1] was 0.442. For the same compound, the “IC50 ± SD, A549 (Lung), Hypoxia” value in data set [2] (hypoxia) is “inactive”. In addition, the IC50 in data set [2] (setting [7]) was 31.4 ± 18.8 µM; in data set [3], 7.31 ± 0.82 µM; in data set [4] (setting [8]), 6.37 ± 1.69 µM; in data set [4] (setting [9]) it was 7.29 ± 1.42 µM; in data set [6] (setting [10]), 8.45 ± 2.25 µM; in data set [6] (setting [11]) it was 4.59 ± 1.57 µM.
